According to PMC4482421 (ACS Nano, 2015):
Square brackets hold non-standard residues; d marks the D form. Peptide text beside a SMILES is read from it. pS = N[C@@H](COP(=O)(O)O)C(=O)O

Assays:
[1] = tested on: human saphenous vein (HSV) rings; assay: Inhibition of phenylephrine-induced HSV contraction; conditions: HSV rings ex vivo; 2 h treatment; 1 μM phenylephrine; n ≥ 3 donors
[2] = tested on: human coronary artery vascular smooth muscle cells (HCAVSMCs); assay: Cytotoxicity assay; assay type: cell-based; conditions: 10–500 μM peptide, 2 h treatment, then 24 h in fresh medium

CC(C)C[C@H](NC(=O)CNC(=O)[C@@H]1CCCN1C(=O)[C@H](CC(C)C)NC(=O)[C@@H]1CCCN1C(=O)[C@H](C)NC(=O)[C@H](COP(=O)(O)O)NC(=O)[C@H](C)NC(=O)[C@H](CCCNC(=N)N)NC(=O)[C@H](CCCNC(=N)N)NC(=O)[C@H](CC(C)C)NC(=O)[C@H](Cc1c[nH]c2ccccc12)NC(=O)[C@H](C)NC(=O)[C@H](CCCNC(=N)N)NC(=O)[C@H](C)NC(=O)[C@H](CCC(N)=O)NC(=O)[C@H](CCCNC(=N)N)NC(=O)[C@H](C)NC(=O)[C@H](C)NC(=O)[C@H](C)NC(=O)[C@H](CCCNC(=N)N)NC(=O)[C@H](C)NC(=O)[C@@H](N)Cc1ccc(O)cc1)C(=O)N[C@@H](CCCCN)C(=O)O [p-HSP20] (H-YARAAARQARAWLRRA[pS]APLPGLK-OH; N-terminus and C-terminus assumed)
inhibition of PE-induced HSV contraction [1]: significantly inhibited the second PE-induced HSV contraction | cytotoxicity / biocompatibility [2]: biocompatible with the exception of mild cytotoxicity detected at 500 μM
